Test results reported in ChEMBL document CHEMBL1157917, “Structure-based rational design, synthesis and antifungal activity of oxime-containing azole derivatives” (2010).
Converted amounts (≈) assume the structure as drawn.

Columns and labels:
Format in all cases: functional
Candida albicans = experiment: Antifungal activity against Candida albicans after 24 hrs by serial dilution method
Cryptococcus neoformans = experiment: Antifungal activity against Cryptococcus neoformans after 72 hrs by serial dilution method
Aspergillus fumigatus = experiment: Antifungal activity against Aspergillus fumigatus after 7 days by serial dilution method; details: 168 h
Candida tropicalis = experiment: Antifungal activity against Candida tropicalis after 24 hrs by serial dilution method
Pichia kudriavzevii = experiment: Antifungal activity against Candida krusei after 24 hrs by serial dilution method
Candida parapsilosis = experiment: Antifungal activity against Candida parapsilosis after 24 hrs by serial dilution method; details: Lodderomyces parapsilosis
Trichophyton rubrum = experiment: Antifungal activity against Trichophyton rubrum after 7 days by serial dilution method; details: 168 h

Compound	MIC80 (Candida albicans)	MIC80 (Cryptococcus neoformans)	MIC80 (Aspergillus fumigatus)	MIC80 (Candida tropicalis)	MIC80 (Pichia kudriavzevii)	MIC80 (Candida parapsilosis)	MIC80 (Trichophyton rubrum)
ON=C1CCN(CC(O)(Cn2cncn2)c2ccc(F)cc2F)CC1 (stereo not given)	1 µg/mL (≈ 2.85 µM)	1 µg/mL (≈ 2.85 µM)	> 64 µg/mL	1 µg/mL (≈ 2.85 µM)	4 µg/mL (≈ 11.4 µM)	16 µg/mL (≈ 45.5 µM)	16 µg/mL (≈ 45.5 µM)
OC(CN1CCC(=NOCc2cccc3ccccc23)CC1)(Cn1cncn1)c1ccc(F)cc1F (racemic)	0.0625 µg/mL (≈ 0.127 µM)	0.0625 µg/mL (≈ 0.127 µM)	1 µg/mL (≈ 2.03 µM)	0.25 µg/mL (≈ 0.509 µM)	4 µg/mL (≈ 8.14 µM)	0.0625 µg/mL (≈ 0.127 µM)	0.25 µg/mL (≈ 0.509 µM)
OC(CN1CCC(=NOCc2ccc(Br)cc2)CC1)(Cn1cncn1)c1ccc(F)cc1F (racemic)	0.016 µg/mL (≈ 0.0307 µM)	0.016 µg/mL (≈ 0.0307 µM)	1 µg/mL (≈ 1.92 µM)	0.004 µg/mL (≈ 0.00769 µM)	0.25 µg/mL (≈ 0.48 µM)	0.016 µg/mL (≈ 0.0307 µM)	0.016 µg/mL (≈ 0.0307 µM)
OC(CN1CCC(=NOCc2cccc(Br)c2)CC1)(Cn1cncn1)c1ccc(F)cc1F (racemic)	0.016 µg/mL (≈ 0.0307 µM)	0.016 µg/mL (≈ 0.0307 µM)	1 µg/mL (≈ 1.92 µM)	0.004 µg/mL (≈ 0.00769 µM)	0.25 µg/mL (≈ 0.48 µM)	0.016 µg/mL (≈ 0.0307 µM)	0.0625 µg/mL (≈ 0.12 µM)
OC(CN1CCC(=NOCc2ccccc2Cl)CC1)(Cn1cncn1)c1ccc(F)cc1F (racemic)	0.016 µg/mL (≈ 0.0336 µM)	0.016 µg/mL (≈ 0.0336 µM)	1 µg/mL (≈ 2.1 µM)	0.016 µg/mL (≈ 0.0336 µM)	0.25 µg/mL (≈ 0.525 µM)	0.004 µg/mL (≈ 0.0084 µM)	0.0625 µg/mL (≈ 0.131 µM)
OC(CN1CCC(=NOCc2ccccc2)CC1)(Cn1cncn1)c1ccc(F)cc1F (racemic)	0.004 µg/mL (≈ 0.00906 µM)	0.016 µg/mL (≈ 0.0362 µM)	1 µg/mL (≈ 2.27 µM)	0.001 µg/mL (≈ 0.00227 µM)	0.0625 µg/mL (≈ 0.142 µM)	0.004 µg/mL (≈ 0.00906 µM)	0.0625 µg/mL (≈ 0.142 µM)
OC(CN1CCC(=NOCc2ccccc2Br)CC1)(Cn1cncn1)c1ccc(F)cc1F (racemic)	0.016 µg/mL (≈ 0.0307 µM)	0.004 µg/mL (≈ 0.00769 µM)	1 µg/mL (≈ 1.92 µM)	0.004 µg/mL (≈ 0.00769 µM)	0.25 µg/mL (≈ 0.48 µM)	0.0625 µg/mL (≈ 0.12 µM)	0.0625 µg/mL (≈ 0.12 µM)
OC(CN1CCC(=NOCc2ccc(F)cc2)CC1)(Cn1cncn1)c1ccc(F)cc1F (racemic)	0.016 µg/mL (≈ 0.0348 µM)	0.016 µg/mL (≈ 0.0348 µM)	1 µg/mL (≈ 2.18 µM)	0.0097 µg/mL (≈ 0.0211 µM)	0.25 µg/mL (≈ 0.544 µM)	0.004 µg/mL (≈ 0.00871 µM)	0.0625 µg/mL (≈ 0.136 µM)
OC(CN1CCC(=NOCc2cccc(F)c2)CC1)(Cn1cncn1)c1ccc(F)cc1F (racemic)	0.016 µg/mL (≈ 0.0348 µM)	0.016 µg/mL (≈ 0.0348 µM)	0.25 µg/mL (≈ 0.544 µM)	0.016 µg/mL (≈ 0.0348 µM)	0.25 µg/mL (≈ 0.544 µM)	0.016 µg/mL (≈ 0.0348 µM)	0.0625 µg/mL (≈ 0.136 µM)
OC(CN1CCC(=NOCc2ccccc2F)CC1)(Cn1cncn1)c1ccc(F)cc1F (racemic)	0.016 µg/mL (≈ 0.0348 µM)	0.004 µg/mL (≈ 0.00871 µM)	1 µg/mL (≈ 2.18 µM)	0.001 µg/mL (≈ 0.00218 µM)	0.25 µg/mL (≈ 0.544 µM)	0.0625 µg/mL (≈ 0.136 µM)	0.0625 µg/mL (≈ 0.136 µM)
OC(CN1CCC(=NOCc2ccc(Cl)cc2Cl)CC1)(Cn1cncn1)c1ccc(F)cc1F (racemic)	0.016 µg/mL (≈ 0.0313 µM)	0.016 µg/mL (≈ 0.0313 µM)	4 µg/mL (≈ 7.84 µM)	0.016 µg/mL (≈ 0.0313 µM)	0.25 µg/mL (≈ 0.49 µM)	0.016 µg/mL (≈ 0.0313 µM)	0.0625 µg/mL (≈ 0.122 µM)
OC(CN1CCC(=NOCc2ccc(Cl)cc2)CC1)(Cn1cncn1)c1ccc(F)cc1F (racemic)	0.0625 µg/mL (≈ 0.131 µM)	0.001 µg/mL (≈ 0.0021 µM)	1 µg/mL (≈ 2.1 µM)	0.0625 µg/mL (≈ 0.131 µM)	0.25 µg/mL (≈ 0.525 µM)	0.016 µg/mL (≈ 0.0336 µM)	0.0625 µg/mL (≈ 0.131 µM)
OC(CN1CCC(=NOCc2cccc(Cl)c2)CC1)(Cn1cncn1)c1ccc(F)cc1F (racemic)	0.016 µg/mL (≈ 0.0336 µM)	0.001 µg/mL (≈ 0.0021 µM)	1 µg/mL (≈ 2.1 µM)	0.0625 µg/mL (≈ 0.131 µM)	0.25 µg/mL (≈ 0.525 µM)	0.0625 µg/mL (≈ 0.131 µM)	0.016 µg/mL (≈ 0.0336 µM)
Cc1ccc(CON=C2CCN(CC(O)(Cn3cncn3)c3ccc(F)cc3F)CC2)cc1 (racemic)	64 µg/mL (≈ 141 µM)	16 µg/mL (≈ 35.1 µM)	64 µg/mL (≈ 141 µM)	64 µg/mL (≈ 141 µM)	16 µg/mL (≈ 35.1 µM)	64 µg/mL (≈ 141 µM)	16 µg/mL (≈ 35.1 µM)
C=Cc1ccc(CON=C2CCN(CC(O)(Cn3cncn3)c3ccc(F)cc3F)CC2)cc1 (racemic)	16 µg/mL (≈ 34.2 µM)	16 µg/mL (≈ 34.2 µM)	64 µg/mL (≈ 137 µM)	64 µg/mL (≈ 137 µM)	64 µg/mL (≈ 137 µM)	64 µg/mL (≈ 137 µM)	16 µg/mL (≈ 34.2 µM)
